What was measured:
Plcg2_N SH2 domain = Plcg2_N SH2 domain (Homo sapiens, UniProt P16885); experiment: Fluorescence polarization solution binding; conditions: Rhodamine B-labeled peptide, GST-SH2, Beacon 2000, read-out: Affinity (KD)
Description: (§1) To verify the binding results obtained from addressable peptide arrays we employed an orthogonal method of determining SH2 interactions with peptide ligands. We measured the dissociation constants of 60 binary SH2-peptide pairs in solution by fluorescence polarization (Table 2, Additional file 2: Figures S3A-C).
(§2) As noted above, this study performs well in terms of reproducing the literature reported interactions between the 50 SH2 domains tested and the 13 proteins represented on the addressable arrays (Table 1). A handful of differences with literature-reported interactions must, by necessity, be reconciled. Our assumption is that a high-throughput (HTP) study such as this one should capture upwards of 85% of known (literature reported) interactions and that results that differ from low throughput studies described in the literature should be subject to further testing to identify the nature of the discrepancy and reveal any weakness in the HTP dataset. […] For instance, FGFR1 Y-766 (SNQEpYLDLSMP) is reported to bind to PLCγ1 in a pTyr dependant manner based on mutational analysis of FGFR1 [55, 56]. […] This may imply that either this is a binding event specific to PLCγ1 (and not PLCγ2), or that the interaction reported at the level of the full-length protein may be more complex, perhaps requiring secondary contact sites that are not available within the context of the short peptide used in the current study. […] We have made an effort to limit false negatives to those of lower affinity, and we are aware of no instance in our dataset of a sub-micromolar affinity interaction being scored as array-negative.
(§3) Peptides were synthesized using FMOC-chemistry onto pre-loaded tenta-gel resins. […] Dissociation constants were measured using the Beacon 2000 (Invitrogen) as previously described.
(§4) Binding Affinities determined by Fluorescence Polarization. […] Fluorescence polarization measurements were read on a Beacon 2000 (Invitrogen). […]

Plcg2_C SH2 domain = Plcg2_C SH2 domain (Homo sapiens, UniProt P16885); experiment: Fluorescence polarization solution binding; conditions: Rhodamine B-labeled peptide, GST-SH2, Beacon 2000, read-out: Affinity (KD)
Description: as §1, §2, §3, §4

Rasa1_C SH2 domain = molecular target: T1, Rasa1_C SH2 domain (Homo sapiens, UniProt P20936); experiment: Fluorescence polarization solution binding; conditions: Rhodamine B-labeled peptide, GST-SH2, Beacon 2000, read-out: Affinity (KD)
T1 sequence (P20936 351-441 limits assumed): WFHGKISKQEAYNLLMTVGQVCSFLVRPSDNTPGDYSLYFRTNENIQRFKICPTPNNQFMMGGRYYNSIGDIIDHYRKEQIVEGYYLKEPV

PI3K1_C SH2 domain = PI3K1_C SH2 domain (Homo sapiens, UniProt P27986); experiment: Fluorescence polarization solution binding; conditions: Rhodamine B-labeled peptide, GST-SH2, Beacon 2000, read-out: Affinity (KD)
Description: as §1
(§5) Peptides were synthesized using FMOC-chemistry onto pre-loaded tenta-gel resins. Peptides were then labeled with Rhodamine B (Abbey Color) and then cleaved using trifluoroacetic acid. Peptides were lyophilized and then purified using a LC/MS (Agilent 2100). Dissociation constants were measured using the Beacon 2000 (Invitrogen) as previously described.
(§6) Binding Affinities determined by Fluorescence Polarization. Rhodamine B-labeled peptides were mixed with varying concentrations of GST-tagged SH2 domains. Fluorescence polarization measurements were read on a Beacon 2000 (Invitrogen). The curves were fit to a Michaelis-Menten equation to calculate the dissociation constant, KD. […] (C) Affinity measurements that fell below the 2X mean intensity and were considered array negative on the SPOT array.

Shb SH2 domain = Shb SH2 domain (Homo sapiens, UniProt Q15464); experiment: Fluorescence polarization solution binding; conditions: Rhodamine B-labeled peptide, GST-SH2, Beacon 2000, read-out: Affinity (KD)
Description: as §1, §5, §6

Ptpn11_N SH2 domain = molecular target: T2, Ptpn11_N SH2 domain (Homo sapiens, UniProt Q06124); experiment: Fluorescence polarization solution binding; conditions: Rhodamine B-labeled peptide, GST-SH2, Beacon 2000, read-out: Affinity (KD)
T2 sequence (Q06124 6-102 limits assumed): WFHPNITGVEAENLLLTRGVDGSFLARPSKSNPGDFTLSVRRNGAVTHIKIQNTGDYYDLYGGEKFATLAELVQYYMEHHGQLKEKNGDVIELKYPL
Description: as §1, §5, §6

Lck SH2 domain [1] = experiment: SPOT peptide array; type: binding; conditions: GST-SH2 0.25 μM, membrane-bound peptide, 1 mM DTT, LiCor read-out
Src SH2 domain [2] = molecular target: T3, Src SH2 domain (Homo sapiens, UniProt P12931); experiment: SPOT peptide array; type: binding; conditions: GST-SH2 0.25 μM, membrane-bound peptide, 1 mM DTT, LiCor read-out
Method in brief: (§7)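 Membrane-bound 11-mer phosphotyrosine peptides (pTyr at position 5, four N-terminal and six C-terminal flanking residues; ~5 nmol per spot) from receptor, scaffold and signalling proteins were probed with GST–SH2 fusions. Bound domain was detected with anti-GST and near-infrared secondary antibodies; spots >3× membrane mean scored positive, <1× mean negative.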

Src SH2 domain [3] = molecular target: T3, Src SH2 domain; parameters: method as in 2 sources, ref [19] = [19]; PMID 7680959; doi:10.1016/0092-8674(93)90404-e; Songyang Z Shoelson SE Chaudhuri M Gish G Pawson T Haser WG King F Roberts T Ratnofsky S Lechleider RJ SH2 domains recognize specific phosphopeptide sequences Cell 1993 72 767 778 7680959 10.1016/0092 ||| ref [119, 121] = [119]; PMID 9032297; doi:10.1128/mcb.17.3.1702; Schlaepfer DD Broome MA Hunter T Fibronectin-stimulated signaling from a focal adhesion kinase-c-Src complex: involvement of the Grb2, p130cas, and Nck adaptor proteins Mol Cell Biol 1997 17 1702 1713 || [121]; PMID 16245368; doi:10.1002/jmr.755; Nasertorabi F Tars K Becherer K Kodandapani R Liljas L Vuori K Ely KR Molecular basis for regulation of Src by the docking protein p130Cas J Mol Recognit 2006 19 30 38 16245368 10.1002/jmr.755; conditions: read-out: Affinity (KD); cited from earlier work
panel of 50 SH2 domains = experiment: SPOT peptide array probed with each of 50 GST-SH2 domains; type: binding; conditions: SH2 domains with intensity >3X array mean; GST-SH2 0.25 μM, 1 mM DTT
Method in brief: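 Each GST-fused SH2 domain was overlaid on 192 membrane-synthesized pTyr peptides (11-mers, 4 N-terminal and 6 C-terminal flanking residues) and read with anti-GST and near-infrared secondary antibodies. Binding called relative to membrane mean intensity (>3× positive, <1× negative); GST-only probes defined nonspecific peptides.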

Lck SH2 domain [4] = molecular target: Lck SH2 domain; parameters: method as in PMID 11278862; conditions: read-out: Affinity (KD); cited from earlier work
Crk SH2 domain [5] = molecular target: T4, Crk SH2 domain (Homo sapiens, UniProt P46108); experiment: SPOT peptide array; type: binding; conditions: GST-SH2 0.25 μM, membrane-bound peptide, 1 mM DTT, LiCor read-out
Method in brief: as §7

Hck SH2 domain = experiment: SPOT peptide array; type: binding; conditions: GST-SH2 0.25 μM, membrane-bound peptide, 1 mM DTT, LiCor read-out
Method in brief: as §7

Rasa1_N SH2 domain = Rasa1_N SH2 domain (Homo sapiens, UniProt P20936); experiment: Fluorescence polarization solution binding; conditions: Rhodamine B-labeled peptide, GST-SH2, Beacon 2000, read-out: Affinity (KD)
PI3K1_N SH2 domain = PI3K1_N SH2 domain (Homo sapiens, UniProt P27986); experiment: Fluorescence polarization solution binding; conditions: Rhodamine B-labeled peptide, GST-SH2, Beacon 2000, read-out: Affinity (KD)
Description: as §1, §5, §6

Crk SH2 domain [6] = molecular target: T4, Crk SH2 domain; experiment: Fluorescence polarization solution binding; conditions: Rhodamine B-labeled peptide, GST-SH2, Beacon 2000, read-out: Affinity (KD)
Description: as §1, §5, §6

Sequence of Plcg2_C SH2 domain (P16885 646-735 limits assumed): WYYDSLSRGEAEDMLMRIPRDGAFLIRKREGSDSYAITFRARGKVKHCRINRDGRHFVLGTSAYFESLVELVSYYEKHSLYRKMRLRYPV
Sequence of PI3K1_C SH2 domain (P27986 624-718 limits assumed): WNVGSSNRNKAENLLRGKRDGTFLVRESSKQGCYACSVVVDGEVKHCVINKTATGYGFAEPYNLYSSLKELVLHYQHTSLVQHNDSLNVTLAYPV
Sequence of PI3K1_N SH2 domain (P27986 333-428 limits assumed): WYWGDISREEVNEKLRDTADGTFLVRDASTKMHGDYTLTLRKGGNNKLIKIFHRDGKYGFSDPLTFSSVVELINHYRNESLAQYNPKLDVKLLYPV
T4 sequence (P46108 13-118 limits assumed): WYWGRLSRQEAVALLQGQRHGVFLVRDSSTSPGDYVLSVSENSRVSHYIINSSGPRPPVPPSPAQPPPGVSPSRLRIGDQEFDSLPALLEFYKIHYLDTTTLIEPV
Sequence of Plcg2_N SH2 domain (P16885 532-635 limits assumed): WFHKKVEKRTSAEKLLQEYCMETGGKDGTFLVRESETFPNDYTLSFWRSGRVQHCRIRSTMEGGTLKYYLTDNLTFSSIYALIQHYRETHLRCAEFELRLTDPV
Sequence of Shb SH2 domain (Q15464 410-504 limits assumed): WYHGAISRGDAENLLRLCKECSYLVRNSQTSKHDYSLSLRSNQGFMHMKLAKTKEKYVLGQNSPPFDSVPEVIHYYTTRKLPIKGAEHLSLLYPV
Sequence of Rasa1_N SH2 domain (P20936 181-272 limits assumed): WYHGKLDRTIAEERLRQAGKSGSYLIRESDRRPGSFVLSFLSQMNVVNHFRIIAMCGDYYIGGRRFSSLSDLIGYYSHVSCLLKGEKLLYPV

| Compound | Kd (Plcg2_C SH2 domain) | Kd (Rasa1_C SH2 domain) | Kd (PI3K1_C SH2 domain) | Kd (Ptpn11_N SH2 domain) | Other SH2 domains bound (additional array-positive SH2 domains) (panel of 50 SH2 domains) | Kd (PI3K1_N SH2 domain) | other results |
| --- | --- | --- | --- | --- | --- | --- | --- |
| CC(C)C[C@H](NC(=O)[C@H](CC(=O)O)NC(=O)[C@H](CC(C)C)NC(=O)[C@H](Cc1ccc(OP(=O)(O)O)cc1)NC(=O)[C@H](CCC(=O)O)NC(=O)[C@H](CC(=O)O)NC(=O)[C@@H](NC(=O)[C@@H](N)CO)[C@@H](C)O)C(=O)N[C@@H](CO)C(=O)N[C@@H](C)C(=O)N1CCC[C@H]1C(=O)O [STDEpYLDLSAP] | 7.49 µM | > 17000 nM | 2.14 µM | 25 µM | – | – | Kd (Plcg2_N SH2 domain): > 50 µM; Kd (Shb SH2 domain): > 50 µM |
| AEPQpYEEIPIY [11-mer phosphotyrosine control peptide, Middle T-antigen (Y323), reference compound] | – | – | – | – | Blk, Brk, Fer, Fgr, Hck, Lyn, Nck1, Shc1, Yes | – | Array positive (Lck SH2 domain [1]): Yes (Array-positive binding was ascribed to interactions with intensities greater than three times the array mean); Array positive (Src SH2 domain [2]): Yes (Array-positive binding was ascribed to interactions with intensities greater than three times the array mean); Kd (Src SH2 domain [3]): 550 to 800 nM; Kd (Lck SH2 domain [4]): 1300 ± 200 nM |
| EDDGpYDVPKPP [11-mer phosphotyrosine control peptide, Cbl (Y774), reference compound] | – | – | – | – | Crkl and Fgr, Src, Yes | – | Array positive (Crk SH2 domain [5]): Yes (Array-positive binding was ascribed to interactions with intensities greater than three times the array mean); Array positive (Hck SH2 domain): Yes (Array-positive binding was ascribed to interactions with intensities greater than three times the array mean) |
| CC(C)C[C@H](NC(=O)[C@H](CCC(=O)O)NC(=O)[C@H](Cc1ccc(OP(=O)(O)O)cc1)NC(=O)CNC(=O)[C@H](CCC(=O)O)NC(=O)[C@H](CCC(=O)O)NC(=O)[C@@H](N)CCCCN)C(=O)N1CCC[C@H]1C(=O)N[C@@H](Cc1ccc(O)cc1)C(=O)N[C@@H](CC(N)=O)C(=O)N1CCC[C@H]1C(=O)O [KEEGpYELPYNP] | – | 1390 nM | 13 µM | > 50 µM | – | 1850 nM | Kd (Rasa1_N SH2 domain): 410 nM |
| CC[C@H](C)[C@H](NC(=O)[C@H](CC(N)=O)NC(=O)[C@@H](NC(=O)[C@H](Cc1ccc(OP(=O)(O)O)cc1)NC(=O)[C@H](CCC(=O)O)NC(=O)CNC(=O)[C@@H]1CCCN1C(=O)[C@@H](N)CO)C(C)C)C(=O)N[C@@H](CCC(=O)O)C(=O)N[C@@H](Cc1ccccc1)C(=O)NCC(=O)O [SPGEpYVNIEFG] | 2.92 µM | – | – | 2.08 µM | – | 2680 nM | Kd (Crk SH2 domain [6]): > 20 µM |
